Laboratory results reported in paper PMC6024679 (Toxins, 2018).
“And” between values parts separate entries of the source, which are not always exact repeats. Identical values can stand only once. Like-named read-outs stand apart in the source and are kept apart here.

How the values were obtained:
[1] = tested on: mammalian NaVs; details: cited from earlier work
Source text: (§1) The first insect NaV gene (para) was cloned from Drosophila melanogaster. After that, lots of studies had cloned NaV genes from many arthropod pests and disease vectors, and most insects have only one para-like NaV gene. […] We speculated that μ-SPRTX-Hv2 is also a broad-spectrum insecticide but it is yet to be experimentally determined. In Blattella ger ...

[2] = tested on: PaNaV1 and BgNaV1 channels; details: β-Diguetoxin-Dc1a; cited from earlier work
[3] = tested on: NaV1.7 channel; details: physiological depolarizing voltages; cited from earlier work
Source text: as §1

[4] = tested on: HVA CaVs in rat DRG neurons; assay: Whole-cell patch-clamp of HVA CaVs in rat DRG neurons; format: cell-based
[5] = tested on: NaVs in cockroach DUM neurons; assay: Whole-cell patch-clamp of voltage-gated sodium channels in cockroach DUM neurons; format: cell-based
[6] = tested on: cockroaches; assay: Lethal effect in cockroaches after injection of toxin, LD50 at 24 h; format: in vivo, cockroach
Experimental: Fifty-six cockroaches were randomly divided into eight groups (n = 7 in each group). Seven groups were used as experimental groups, to which 10 μL toxin solution (dissolved in saline) was injected between the fourth and fifth sternite, at single dose of 0.29, 0.53, 0.96, 1.74, 3.09, 5.56, or 10 nmol/g for each group. The eighth group was used as experimental control and was injected with 10 μL saline. Lethal effect was observed 24 h after injection. The LD50 value was determined by using the improved Karber’s method. For testing the toxicity of μ-SPRTX-Hv2 to mouse, toxin at a single dose of 1.7 nmol/g (7.0 µg/g) was injected intraperitoneally.

[7] = tested on: mouse; details: 7.0 μg/g (1.7 nmol/g), intraperitoneal, single dose, n = 3
[8] = tested on: hNaV1.7; assay: Whole-cell patch-clamp of NaV1.7 in HEK293T cells; format: cell-based, human (h, as printed in hNaV1.7)
[9] = tested on: rNaV1.8; assay: Whole-cell patch-clamp of NaV1.8 in ND7/23 cells; format: cell-based, rat (r, as printed in rNaV1.8)
[10] = tested on: hNaV1.5; assay: Whole-cell patch-clamp of NaV1.5 in HEK293T cells; format: cell-based, human (h, as printed in hNaV1.5)
[11] = tested on: tetrodotoxin sensitive NaVs (TTX-S NaVs) in rat DRG neurons; format: cell-based
[12] = tested on: DUM HVA CaVs; assay: Whole-cell patch-clamp of HVA calcium channels in cockroach DUM neurons; format: cell-based
[13] = tested on: meal beetles; details: cited from earlier work
[14] = tested on: cockroaches; details: cited from earlier work
[15] = tested on: insect CaVs; details: ω-hexatoxin-Hv1a; cited from earlier work

For `NC1=N[C@H](O)[C@H]2[C@H]3O[C@]4(O)O[C@@H]([C@@H](O)[C@@]2(N1)[C@@H]4O)[C@]3(O)CO` [TTX, tetrodotoxin], the “mode of action on mammalian NaVs” value [1] is given as “physically blocking the ion conducting pathway”.
In the case of β-Diguetoxin-Dc1a, the “selectivity between PaNaV1 and BgNaV1” value [2] is listed as “showed selectivity between the highly conserved PaNaV1 and BgNaV1 channels”.
For HWTX-IV: toxin acting on NaV1.7 channel, the “effect on steady-state activation curve” value [3] is listed as “did not change the steady-state activation curve”.
For μ-sparatoxin-Hv2 [μ-SPRTX-Hv2], the “effect on HVA CaVs currents in rat DRG neurons” value [4] was “did not affect the currents”, the IC50 [5] was 834 nM and 718 nM and the “Ka (slope factor, steady-state activation) after toxin treatment” value [5] was 4.4 ± 0.4 mV. The “Kh (slope factor, steady-state inactivation) after toxin treatment” value [5] was −5.4 ± 0.3 mV, the “Va (steady-state activation) after toxin treatment” value [5] was −23.0 ± 3.7 mV and the “Vh (steady-state inactivation) after toxin treatment” value [5] was −38.7 ± 4.1 mV. The “association time constant (τon)” value [5] was 13.8 ± 1.7 s, the “block of currents across voltages (I–V relationship)” value [5] was “blocked the currents at all voltage tested” and the “effect on initial activation voltage, peak current voltage and reversal voltage” value [5] was “did not affect the initial activation voltage, the peak current voltage and the reversal voltage”. The “reversibility of block on washing by bath solution perfusion” value [5] was “could not be washed off by bath solution perfusion”, the LD50 ([6]; cockroaches, calculated) was 11.7 μg/g of body weight and the LD50 ([6]; in vivo, ip) was 3.6 nmol/g of body weight. For the same molecule, the LD50 ([6]; synthetic toxin, cockroaches, 10 μL in saline injected between fourth and fifth sternite, single dose 0.29-10 nmol/g, n = 7 per group, 24 h after injection, improved Karber's method) was 2.8 nmol/g of body weight, the “envenomation symptoms in mouse” value [7] was “no obvious envenomation symptoms were observed” and the “effect on NaV1.7 currents” value [8] was “did not affect”. For the same molecule, the “effect on NaV1.8 currents” value [9] was “did not affect”, the “effect on NaV1.5 currents” value [10] was “did not affect” and the “effect on TTX-S NaVs currents in rat DRG neurons” value [11] was “did not affect the currents”. For the same molecule, the “effect on DUM HVA CaVs currents” value [12] was “did not affect the currents of DUM HVA CaVs”.
In the case of brachyin, the LD50 [13] is listed as 1.55 pm/g of body weight and the LD50 [14] is listed as 1.02 pm/g of body weight.
For ω-hexatoxin-Hv1a, the “effect on insect CaVs” value [15] is given as “acting on the insect CaVs”.
